The supplement of paper PMC11451515

Test system: NOMO1
Assay: cell viability relative to DMSO control; higher = less cytotoxic
Conditions: 48 h
Method in brief: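 NOMO1, SEM and P12-Ichikawa leukemia cells spent at least four passages adapting to each medium before use. They were seeded at 500 cells/well (NOMO1, SEM) or 1000 cells/well (P12-Ichikawa) in 5 μl in 1536-well plates and pin-dosed with library compounds in DMSO at 11 threefold steps from 47 μM down to 0.79 nM. After 48 h at 37°C, CellTiter-Glo One luminescence was read. Viability is reported as a percentage of the DMSO wells on each plate, with cell-free wells as background.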

[1] = HPLM + 10% dialyzed FBS, 0.000781 µM
[2] = HPLM + 10% dialyzed FBS, 0.00234 µM
[3] = HPLM + 10% dialyzed FBS, 0.00702 µM
[4] = HPLM + 10% dialyzed FBS, 0.0211 µM
[5] = HPLM + 10% dialyzed FBS, 0.0632 µM
[6] = HPLM + 10% dialyzed FBS, 0.19 µM
[7] = HPLM + 10% dialyzed FBS, 0.569 µM
[8] = HPLM + 10% dialyzed FBS, 1.71 µM
[9] = HPLM + 10% dialyzed FBS, 5.12 µM
[10] = HPLM + 10% dialyzed FBS, 15.4 µM
[11] = HPLM + 10% dialyzed FBS, 46.1 µM
[12] = RPMI 5 mM glucose + 10% FBS, 0.000781 µM
[13] = RPMI 5 mM glucose + 10% FBS, 0.00234 µM
[14] = RPMI 5 mM glucose + 10% FBS, 0.00702 µM
[15] = RPMI 5 mM glucose + 10% FBS, 0.0211 µM
[16] = RPMI 5 mM glucose + 10% FBS, 0.0632 µM
[17] = RPMI 5 mM glucose + 10% FBS, 0.19 µM
[18] = RPMI 5 mM glucose + 10% FBS, 0.569 µM
[19] = RPMI 5 mM glucose + 10% FBS, 1.71 µM
[20] = RPMI 5 mM glucose + 10% FBS, 5.12 µM
[21] = RPMI 5 mM glucose + 10% FBS, 15.4 µM
[22] = RPMI 5 mM glucose + 10% FBS, 46.1 µM
[23] = RPMI 5 mM glucose + 10% dialyzed FBS, 0.000781 µM
[24] = RPMI 5 mM glucose + 10% dialyzed FBS, 0.00234 µM
[25] = RPMI 5 mM glucose + 10% dialyzed FBS, 0.00702 µM
[26] = RPMI 5 mM glucose + 10% dialyzed FBS, 0.0211 µM
[27] = RPMI 5 mM glucose + 10% dialyzed FBS, 0.0632 µM
[28] = RPMI 5 mM glucose + 10% dialyzed FBS, 0.19 µM
[29] = RPMI 5 mM glucose + 10% dialyzed FBS, 0.569 µM
[30] = RPMI 5 mM glucose + 10% dialyzed FBS, 1.71 µM
[31] = RPMI 5 mM glucose + 10% dialyzed FBS, 5.12 µM
[32] = RPMI 5 mM glucose + 10% dialyzed FBS, 15.4 µM
[33] = RPMI 5 mM glucose + 10% dialyzed FBS, 46.1 µM

SMILES	cell viability [1] [%]	cell viability [2] [%]	cell viability [3] [%]	cell viability [4] [%]	cell viability [5] [%]	cell viability [6] [%]	cell viability [7] [%]	cell viability [8] [%]	cell viability [9] [%]	cell viability [10] [%]	cell viability [11] [%]	cell viability [12] [%]	cell viability [13] [%]	cell viability [14] [%]	cell viability [15] [%]	cell viability [16] [%]	cell viability [17] [%]	cell viability [18] [%]	cell viability [19] [%]	cell viability [20] [%]	cell viability [21] [%]	cell viability [22] [%]	cell viability [23] [%]	cell viability [24] [%]	cell viability [25] [%]	cell viability [26] [%]	cell viability [27] [%]	cell viability [28] [%]	cell viability [29] [%]	cell viability [30] [%]	cell viability [31] [%]	cell viability [32] [%]	cell viability [33] [%]
NC(=O)N1CCC(CC(=O)N2CCC([C@H]3c4ncc(Br)cc4CCc4cc(Cl)cc(Br)c43)CC2)CC1	113	109	126	118	117	110	114	122	90	90	53.4	107	112	109	98.5	104	103	99.2	101	86.2	80.2	54.1	109	113	123	112	118	112	94	104	95.7	87.6	69.4
Cc1cc(/C=c2/sc3nc4ccccc4n3c2=O)c(C)n1-c1ccccc1	117	113	128	117	132	120	130	119	128	113	123	111	128	115	127	125	126	105	111	119	109	104	121	127	115	137	126	127	121	127	126	133	121
CN1CCC(CNc2ccc3ncc(-c4cccc(OC(F)(F)F)c4)n3n2)CC1	101	106	112	113	97.8	125	114	104	91	70.7	5.88	87.2	83.3	85.2	99.5	89.4	91.4	97.9	85.8	85.6	73.5	5.17	116	93.1	97.1	88.2	99.4	97.5	104	94.9	79.3	68.5	4.98
Cc1noc(N[S+](=O)([O-])c2ccc(N)cc2)c1C	92.3	91.3	109	97.9	95.6	101	109	114	96	92	104	98	92.7	88.6	89.5	108	102	113	111	106	91.6	104	92.3	90.7	71.5	92.6	89	89.7	92.6	96.2	90.3	94.6	81.4
CCCCCN(C)CCC(O)(P(=O)([O-])O)P(=O)(O)O	68.4	81.8	89	101	85.3	92.9	89.5	92.4	86	80	94	81.1	88.8	89.5	96.7	97.3	99.9	97.9	94.4	95	84.8	81.7	84.6	87.3	86.1	80	93.7	101	96.5	90.8	85.2	94.1	75
O=C(NOCC1CC1)c1ccc(F)c(F)c1Nc1ccc(I)cc1Cl	97.2	109	123	115	99.1	91.7	74.7	68.5	52	49.3	41.4	84.5	91.6	100	112	95.1	93.8	73.5	83.5	56.9	46.9	50	95.7	108	97.2	107	92.4	86.8	82.1	75.6	44.2	42.8	44.4
COC(=O)[C@H](Cc1ccccc1)NC(=O)[C@@H](N)CC(=O)O	110	124	116	112	128	115	113	112	93.6	96.1	94.9	108	121	125	122	110	126	115	107	112	105	108	126	117	120	112	112	125	106	122	70.4	116	108
